Experiment: xn = mol fraction of the nth substance listed
Settings: 101 kPa, Liquid; for viscosity: Falling or rolling sphere viscometry; for speed of sound: Frequency=3 MHz, Sing-around technique in a fixed-path interferometer; for mass density: Vibrating tube method

CCCC[n+]1ccn(C)c1.O=S(=O)([N-]S(=O)(=O)C(F)(F)F)C(F)(F)F + CCCO
Settings | mass density [kg/m3] | speed of sound [m/s] | viscosity [mPa·s]
298.15 K, x1 = 0.1034 | 997.935 | 1181.5 | 3.73
298.15 K, x1 = 0.203 | 1117.34 | 1181.2 | 5.98
298.15 K, x1 = 0.3043 | 1200.89 | 1188.3 | 8.11
298.15 K, x1 = 0.409 | 1263.74 | 1196.8 | 10.82
298.15 K, x1 = 0.5068 | 1308.36 | 1203 | 14.12
298.15 K, x1 = 0.603 | 1343.44 | 1209.4 | 19.03
298.15 K, x1 = 0.6981 | 1371.86 | 1214.5 | 24.41
298.15 K, x1 = 0.809 | 1399.1 | 1219.9 | 31.43
298.15 K, x1 = 0.8925 | 1416.56 | 1223.7 | 39.52
298.15 K, x1 = 1 | 1436.02 | 1227.3 | 51.22
303.15 K, x1 = 0.1034 | 993.513 | 1167.2 | 3.24
303.15 K, x1 = 0.203 | 1112.85 | 1168 | 5.16
303.15 K, x1 = 0.3043 | 1196.18 | 1175.7 | 6.94
303.15 K, x1 = 0.409 | 1259 | 1184.7 | 9.22
303.15 K, x1 = 0.5068 | 1303.62 | 1191.2 | 11.91
303.15 K, x1 = 0.603 | 1338.71 | 1197.8 | 16.24
303.15 K, x1 = 0.6981 | 1367.11 | 1203.2 | 20.52
303.15 K, x1 = 0.809 | 1394.38 | 1208.6 | 26.11
303.15 K, x1 = 0.8925 | 1411.81 | 1212.6 | 32.53
303.15 K, x1 = 1 | 1431.22 | 1216.3 | 41.91
308.15 K, x1 = 0.1034 | 989.047 | 1152.9 | 2.85
308.15 K, x1 = 0.203 | 1108.26 | 1154.8 | 4.5
308.15 K, x1 = 0.3043 | 1191.48 | 1163.1 | 6.01
308.15 K, x1 = 0.409 | 1254.22 | 1172.6 | 7.94
308.15 K, x1 = 0.5068 | 1298.84 | 1179.5 | 10.21
308.15 K, x1 = 0.603 | 1333.94 | 1186.3 | 13.72
308.15 K, x1 = 0.6981 | 1362.35 | 1191.8 | 17.43
308.15 K, x1 = 0.809 | 1389.63 | 1197.5 | 22.13
308.15 K, x1 = 0.8925 | 1407.06 | 1201.6 | 27.21
308.15 K, x1 = 1 | 1426.43 | 1205.5 | 34.63
313.15 K, x1 = 0.1034 | 984.572 | 1138.7 | 2.53
313.15 K, x1 = 0.203 | 1103.58 | 1141.7 | 3.95
313.15 K, x1 = 0.3043 | 1186.72 | 1150.7 | 5.25
313.15 K, x1 = 0.409 | 1249.43 | 1160.6 | 6.9
313.15 K, x1 = 0.5068 | 1294.03 | 1167.8 | 8.85
313.15 K, x1 = 0.603 | 1329.15 | 1175 | 11.93
313.15 K, x1 = 0.6981 | 1357.57 | 1180.7 | 14.94
313.15 K, x1 = 0.809 | 1384.85 | 1186.4 | 18.72
313.15 K, x1 = 0.8925 | 1402.29 | 1190.7 | 22.94
313.15 K, x1 = 1 | 1421.64 | 1194.7 | 28.93
318.15 K, x1 = 0.1034 | 979.997 | 1124.5 | 2.27
318.15 K, x1 = 0.203 | 1098.85 | 1128.7 | 3.69
318.15 K, x1 = 0.3043 | 1181.93 | 1138.3 | 4.84
318.15 K, x1 = 0.409 | 1244.67 | 1148.8 | 6.15
318.15 K, x1 = 0.5068 | 1289.19 | 1156.3 | 7.74
318.15 K, x1 = 0.603 | 1324.35 | 1163.7 | 10.34
318.15 K, x1 = 0.6981 | 1352.76 | 1169.5 | 13.01
318.15 K, x1 = 0.809 | 1380.05 | 1175.5 | 16.35
318.15 K, x1 = 0.8925 | 1397.5 | 1180 | 19.74
318.15 K, x1 = 1 | 1416.84 | 1184 | 24.63
323.15 K, x1 = 0.1034 | 975.381 | 1110.5 | 2.03
323.15 K, x1 = 0.203 | 1094.03 | 1115.8 | 2.98
323.15 K, x1 = 0.3043 | 1177.02 | 1126 | 3.93
323.15 K, x1 = 0.409 | 1239.67 | 1137 | 5.25
323.15 K, x1 = 0.5068 | 1284.24 | 1144.8 | 6.82
323.15 K, x1 = 0.603 | 1319.4 | 1152.6 | 9.13
323.15 K, x1 = 0.6981 | 1347.82 | 1158.6 | 11.42
323.15 K, x1 = 0.809 | 1375.13 | 1164.6 | 14.23
323.15 K, x1 = 0.8925 | 1392.58 | 1169.3 | 17.01
323.15 K, x1 = 1 | 1411.89 | 1173.5 | 21.11
